Laboratory results from article PMC2801808 (Journal of medicinal chemistry, 2009).

What was measured:
[1] = no reference given; cited from earlier work
[2] = tested on: calpain; settings: cited from earlier work
[3] = biological target: T1, purified calpain 1 (Homo sapiens, UniProt P07384); experiment: Calpain 1 activity, sLLVY-AMC hydrolysis with purified calpain 1; format: biochemical
T1 sequence (P07384 1-714): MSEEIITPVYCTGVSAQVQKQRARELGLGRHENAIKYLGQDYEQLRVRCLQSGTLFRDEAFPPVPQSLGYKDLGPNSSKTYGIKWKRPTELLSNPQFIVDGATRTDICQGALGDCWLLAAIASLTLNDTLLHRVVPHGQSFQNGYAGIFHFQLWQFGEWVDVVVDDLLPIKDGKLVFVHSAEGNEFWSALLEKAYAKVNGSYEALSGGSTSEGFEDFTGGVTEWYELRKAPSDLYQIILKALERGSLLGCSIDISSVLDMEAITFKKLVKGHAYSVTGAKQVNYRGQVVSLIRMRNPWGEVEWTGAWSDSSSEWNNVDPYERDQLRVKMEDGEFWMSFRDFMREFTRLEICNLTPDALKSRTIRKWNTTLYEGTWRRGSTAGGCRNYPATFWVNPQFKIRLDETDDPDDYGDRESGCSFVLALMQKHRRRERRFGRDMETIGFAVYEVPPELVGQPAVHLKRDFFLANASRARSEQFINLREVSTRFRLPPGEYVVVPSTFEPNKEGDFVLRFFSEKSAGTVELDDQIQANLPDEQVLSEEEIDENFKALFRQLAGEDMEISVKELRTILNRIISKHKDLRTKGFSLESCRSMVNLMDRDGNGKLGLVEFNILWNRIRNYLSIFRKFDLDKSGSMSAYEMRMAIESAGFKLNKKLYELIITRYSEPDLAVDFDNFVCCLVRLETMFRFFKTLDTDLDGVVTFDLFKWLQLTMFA
T1 sequence (P04632 1-268 partner): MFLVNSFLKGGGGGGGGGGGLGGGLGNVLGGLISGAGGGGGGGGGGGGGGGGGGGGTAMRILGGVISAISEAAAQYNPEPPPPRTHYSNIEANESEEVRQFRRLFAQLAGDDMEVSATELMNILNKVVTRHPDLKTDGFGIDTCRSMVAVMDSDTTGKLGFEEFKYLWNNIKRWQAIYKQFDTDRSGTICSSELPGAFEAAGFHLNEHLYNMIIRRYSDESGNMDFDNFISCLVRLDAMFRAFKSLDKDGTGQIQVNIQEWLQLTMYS

[4] = tested on: NDUFV2 cleavage; experiment: Ca2+-induced cleavage of complex I subunit NDUFV2 in isolated mitochondria; parameters: species or system rabbit; settings: 10 μM pretreatment, then Ca2+ 1 μM for 5 min
[5] = tested on: state 3 respiration of renal cortical mitochondria; experiment: Ca2+-induced attenuation of state 3 respiration in isolated mitochondria; parameters: species or system rabbit; settings: 10 μM pretreatment, then Ca2+ 1 μM for 5 min
[6] = biological target: T2, calpain 2 (Sus scrofa, UniProt A6YNL5); experiment: Calpain 2 inhibition; format: biochemical, porcine
T2 sequence (A6YNL5 1-700): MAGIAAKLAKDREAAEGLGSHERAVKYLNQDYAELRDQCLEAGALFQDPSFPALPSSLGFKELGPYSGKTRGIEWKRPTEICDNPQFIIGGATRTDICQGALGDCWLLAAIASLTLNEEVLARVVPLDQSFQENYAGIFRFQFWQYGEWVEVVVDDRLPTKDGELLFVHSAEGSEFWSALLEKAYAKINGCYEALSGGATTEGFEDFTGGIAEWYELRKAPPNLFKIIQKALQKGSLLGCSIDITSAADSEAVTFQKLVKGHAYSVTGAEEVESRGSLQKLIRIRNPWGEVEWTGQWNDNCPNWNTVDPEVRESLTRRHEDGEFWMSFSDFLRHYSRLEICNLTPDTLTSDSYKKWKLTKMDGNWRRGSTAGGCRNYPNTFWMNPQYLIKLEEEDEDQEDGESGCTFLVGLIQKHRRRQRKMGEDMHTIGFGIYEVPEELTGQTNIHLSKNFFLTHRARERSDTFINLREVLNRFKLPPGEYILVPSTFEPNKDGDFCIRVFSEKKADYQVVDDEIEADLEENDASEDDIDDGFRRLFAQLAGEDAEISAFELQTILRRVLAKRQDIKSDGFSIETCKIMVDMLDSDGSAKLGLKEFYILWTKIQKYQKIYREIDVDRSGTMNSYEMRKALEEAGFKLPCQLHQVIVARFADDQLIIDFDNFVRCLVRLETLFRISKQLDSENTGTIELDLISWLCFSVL
T2 sequence (P04574 1-266 partner): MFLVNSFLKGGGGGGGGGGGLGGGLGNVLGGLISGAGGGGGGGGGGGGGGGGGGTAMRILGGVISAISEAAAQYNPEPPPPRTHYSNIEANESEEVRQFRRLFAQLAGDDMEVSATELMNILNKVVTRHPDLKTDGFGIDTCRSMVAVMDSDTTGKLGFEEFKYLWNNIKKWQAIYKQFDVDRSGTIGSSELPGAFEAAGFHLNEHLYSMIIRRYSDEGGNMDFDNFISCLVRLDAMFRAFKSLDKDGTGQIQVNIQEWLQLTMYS

Structure (SMILES)	thiol pKa [1]	selectivity for calpain over cathepsin B [2]	further results
CCS [ethanethiol]	10.61	–	–
O=C(O)/C(S)=C/c1c[nH]c2ccc(F)cc12 [PD151746]	–	600 fold	–
COc1ccc(S)cc1 [methoxythiophenol]	6.8	–	–
O=C(O)/C(S)=C/c1ccc(I)cc1 [PD150606]	–	600 fold	–
CCCC[C@@H](C=O)NC(=O)[C@H](CC(C)C)NC(=O)OCc1ccccc1 [Calpeptin, Z-Leu-Nle-CHO]	–	–	IC50 [3]: ~40 nM; Ca2+-induced cleavage of complex I subunit NDUFV2 [4]: blocked; Ca2+-induced attenuation of state 3 respiration [5]: blocked; IC50 [6]: ~60 nM
